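A five-concentration, 48-hour dose response in 96-well plates underlies each endpoint, interpolated linearly between surrounding concentrations. TGI: total growth inhibition.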
Test system: MCF7 breast
Test: inhibition of tumour cell growth, NCI panel, 48 h

Compared with `CC(C)/C(Cl)=N\OC(=O)Nc1ccc(F)cc1`, `Cc1c(S(=O)(=O)/N=C(\NN)Nc2ccc(Cl)cc2)sc2ccc(Cl)cc12` is 2.1-fold higher in TGI: 14.3 µM for the first, 30.2 µM for the second.

`COc1cc(N2C(=O)C(=O)C3(CCCCC3)C2=O)cc(OC)c1OC` and `COc1cc(/C=C2/SC(c3ccccc3)N(c3cccc(NC(C)=O)c3)C2=O)cc(OC)c1OC` (configuration not stated) cannot be ordered by TGI: > 100 µM for the first, > 100 µM for the second.

In the case of `CC(=O)Oc1ccc2[nH]c3c(C)c4cccc-4ccc3c2c1`, the TGI is reported as 10.7 µM.

Test system: KM12 colon
Test: inhibition of tumour cell growth, NCI panel, 48 h

`CC(C)/C(Cl)=N\OC(=O)Nc1ccc(F)cc1` and `Cc1c(S(=O)(=O)/N=C(\NN)Nc2ccc(Cl)cc2)sc2ccc(Cl)cc12` are within 1.5-fold of each other in TGI: 35.7 µM for the first, 30 µM for the second.

`COc1cc(N2C(=O)C(=O)C3(CCCCC3)C2=O)cc(OC)c1OC` and `COc1cc(/C=C2/SC(c3ccccc3)N(c3cccc(NC(C)=O)c3)C2=O)cc(OC)c1OC` (configuration not stated) cannot be ordered by TGI: > 100 µM for the first, > 100 µM for the second.

Work on `CC(=O)Oc1ccc2[nH]c3c(C)c4cccc-4ccc3c2c1` yielded a TGI of 5.47 µM.

Test system: SF-295 CNS
Test: inhibition of tumour cell growth, NCI panel, 48 h

`CC(C)/C(Cl)=N\OC(=O)Nc1ccc(F)cc1` and `Cc1c(S(=O)(=O)/N=C(\NN)Nc2ccc(Cl)cc2)sc2ccc(Cl)cc12` are within 1.5-fold of each other in TGI: 27.8 µM for the first, 33.6 µM for the second.

`COc1cc(N2C(=O)C(=O)C3(CCCCC3)C2=O)cc(OC)c1OC` and `COc1cc(/C=C2/SC(c3ccccc3)N(c3cccc(NC(C)=O)c3)C2=O)cc(OC)c1OC` (configuration not stated) cannot be ordered by TGI: > 100 µM for the first, > 100 µM for the second.

`CC(=O)Oc1ccc2[nH]c3c(C)c4cccc-4ccc3c2c1` showed a TGI of 4.32 µM.

Test system: NCI-H226 lung
Test: inhibition of tumour cell growth, NCI panel, 48 h

`CC(C)/C(Cl)=N\OC(=O)Nc1ccc(F)cc1` and `Cc1c(S(=O)(=O)/N=C(\NN)Nc2ccc(Cl)cc2)sc2ccc(Cl)cc12` are within 1.5-fold of each other in TGI: 36.9 µM for the first, 41.6 µM for the second.

`COc1cc(N2C(=O)C(=O)C3(CCCCC3)C2=O)cc(OC)c1OC` and `COc1cc(/C=C2/SC(c3ccccc3)N(c3cccc(NC(C)=O)c3)C2=O)cc(OC)c1OC` (configuration not stated) cannot be ordered by TGI: > 100 µM for the first, > 100 µM for the second.

For `CC(=O)Oc1ccc2[nH]c3c(C)c4cccc-4ccc3c2c1`, the TGI was 3.11 µM.

Test system: T-47D breast
Test: inhibition of tumour cell growth, NCI panel, 48 h

`CC(C)/C(Cl)=N\OC(=O)Nc1ccc(F)cc1` and `Cc1c(S(=O)(=O)/N=C(\NN)Nc2ccc(Cl)cc2)sc2ccc(Cl)cc12` are within 1.5-fold of each other in TGI: 24.1 µM for the first, 24 µM for the second.

`COc1cc(N2C(=O)C(=O)C3(CCCCC3)C2=O)cc(OC)c1OC` and `COc1cc(/C=C2/SC(c3ccccc3)N(c3cccc(NC(C)=O)c3)C2=O)cc(OC)c1OC` (configuration not stated) cannot be ordered by TGI: > 100 µM for the first, > 100 µM for the second.

`CC(=O)Oc1ccc2[nH]c3c(C)c4cccc-4ccc3c2c1` was tested, and the TGI was 8.22 µM.

Test system: SK-MEL-28 melanoma
Test: inhibition of tumour cell growth, NCI panel, 48 h

First: CC(C)/C(Cl)=N\OC(=O)Nc1ccc(F)cc1
Second: Cc1c(S(=O)(=O)/N=C(\NN)Nc2ccc(Cl)cc2)sc2ccc(Cl)cc12
The TGI of the first is 3.8-fold lower: 11.5 µM for the first, 44.1 µM for the second.

`COc1cc(N2C(=O)C(=O)C3(CCCCC3)C2=O)cc(OC)c1OC` and `COc1cc(/C=C2/SC(c3ccccc3)N(c3cccc(NC(C)=O)c3)C2=O)cc(OC)c1OC` (configuration not stated) cannot be ordered by TGI: > 100 µM for the first, > 100 µM for the second.

In the case of `CC(=O)Oc1ccc2[nH]c3c(C)c4cccc-4ccc3c2c1`, the TGI is reported as 4.47 µM.

Test system: DU-145 prostate
Test: inhibition of tumour cell growth, NCI panel, 48 h

`CC(C)/C(Cl)=N\OC(=O)Nc1ccc(F)cc1` and `Cc1c(S(=O)(=O)/N=C(\NN)Nc2ccc(Cl)cc2)sc2ccc(Cl)cc12` are within 1.5-fold of each other in TGI: 30.7 µM for the first, 30.9 µM for the second.

`COc1cc(N2C(=O)C(=O)C3(CCCCC3)C2=O)cc(OC)c1OC` and `COc1cc(/C=C2/SC(c3ccccc3)N(c3cccc(NC(C)=O)c3)C2=O)cc(OC)c1OC` (configuration not stated) cannot be ordered by TGI: > 100 µM for the first, > 100 µM for the second.

For `CC(=O)Oc1ccc2[nH]c3c(C)c4cccc-4ccc3c2c1`, the TGI was 12.7 µM.

Test system: TK-10 renal
Test: inhibition of tumour cell growth, NCI panel, 48 h

Compared with `CC(C)/C(Cl)=N\OC(=O)Nc1ccc(F)cc1`, `Cc1c(S(=O)(=O)/N=C(\NN)Nc2ccc(Cl)cc2)sc2ccc(Cl)cc12` is 3.5-fold higher in TGI: 9.06 µM for the first, 31.8 µM for the second.

`COc1cc(N2C(=O)C(=O)C3(CCCCC3)C2=O)cc(OC)c1OC` and `COc1cc(/C=C2/SC(c3ccccc3)N(c3cccc(NC(C)=O)c3)C2=O)cc(OC)c1OC` (configuration not stated) cannot be ordered by TGI: > 100 µM for the first, > 100 µM for the second.

`CC(=O)Oc1ccc2[nH]c3c(C)c4cccc-4ccc3c2c1` was tested, and the TGI was 3.57 µM.

Test system: MDA-MB-231 breast
Test: inhibition of tumour cell growth, NCI panel, 48 h

First: CC(C)/C(Cl)=N\OC(=O)Nc1ccc(F)cc1
Second: Cc1c(S(=O)(=O)/N=C(\NN)Nc2ccc(Cl)cc2)sc2ccc(Cl)cc12
The TGI of the first is 6.2-fold lower: 5.17 µM for the first, 32 µM for the second.

Test system: NCI-H23 lung
Test: inhibition of tumour cell growth, NCI panel, 48 h

`CC(C)/C(Cl)=N\OC(=O)Nc1ccc(F)cc1` and `Cc1c(S(=O)(=O)/N=C(\NN)Nc2ccc(Cl)cc2)sc2ccc(Cl)cc12` are within 1.5-fold of each other in TGI: 38.4 µM for the first, 35.6 µM for the second.

`COc1cc(N2C(=O)C(=O)C3(CCCCC3)C2=O)cc(OC)c1OC` and `COc1cc(/C=C2/SC(c3ccccc3)N(c3cccc(NC(C)=O)c3)C2=O)cc(OC)c1OC` (configuration not stated) cannot be ordered by TGI: > 100 µM for the first, > 100 µM for the second.

`CC(=O)Oc1ccc2[nH]c3c(C)c4cccc-4ccc3c2c1` gave a TGI of 3.96 µM.

Test system: MDA-N
Test: inhibition of tumour cell growth, NCI panel, 48 h

`CC(C)/C(Cl)=N\OC(=O)Nc1ccc(F)cc1` and `Cc1c(S(=O)(=O)/N=C(\NN)Nc2ccc(Cl)cc2)sc2ccc(Cl)cc12` are within 1.5-fold of each other in TGI: 23.2 µM for the first, 29.1 µM for the second.

`COc1cc(N2C(=O)C(=O)C3(CCCCC3)C2=O)cc(OC)c1OC` and `COc1cc(/C=C2/SC(c3ccccc3)N(c3cccc(NC(C)=O)c3)C2=O)cc(OC)c1OC` (configuration not stated) cannot be ordered by TGI: > 100 µM for the first, > 100 µM for the second.

In the case of `CC(=O)Oc1ccc2[nH]c3c(C)c4cccc-4ccc3c2c1`, the TGI is reported as 4.93 µM.

Test system: SN12C renal
Test: inhibition of tumour cell growth, NCI panel, 48 h

First: CC(C)/C(Cl)=N\OC(=O)Nc1ccc(F)cc1
Second: Cc1c(S(=O)(=O)/N=C(\NN)Nc2ccc(Cl)cc2)sc2ccc(Cl)cc12
The TGI of the first is 1.9-fold lower: 16.7 µM for the first, 30.9 µM for the second.

`COc1cc(N2C(=O)C(=O)C3(CCCCC3)C2=O)cc(OC)c1OC` and `COc1cc(/C=C2/SC(c3ccccc3)N(c3cccc(NC(C)=O)c3)C2=O)cc(OC)c1OC` (configuration not stated) cannot be ordered by TGI: > 100 µM for the first, > 100 µM for the second.

For `CC(=O)Oc1ccc2[nH]c3c(C)c4cccc-4ccc3c2c1`, the TGI was 4.49 µM.

Test system: MOLT-4 leukemia
Test: inhibition of tumour cell growth, NCI panel, 48 h

Going from `CC(C)/C(Cl)=N\OC(=O)Nc1ccc(F)cc1` to `Cc1c(S(=O)(=O)/N=C(\NN)Nc2ccc(Cl)cc2)sc2ccc(Cl)cc12`, the TGI rises from 4.2 µM to 59.8 µM (14-fold).

`COc1cc(N2C(=O)C(=O)C3(CCCCC3)C2=O)cc(OC)c1OC` and `COc1cc(/C=C2/SC(c3ccccc3)N(c3cccc(NC(C)=O)c3)C2=O)cc(OC)c1OC` (configuration not stated) cannot be ordered by TGI: > 100 µM for the first, > 100 µM for the second.

In the case of `CC(=O)Oc1ccc2[nH]c3c(C)c4cccc-4ccc3c2c1`, the TGI is reported as 9.82 µM.

Test system: SNB-75 CNS
Test: inhibition of tumour cell growth, NCI panel, 48 h

First: COc1cc(N2C(=O)C(=O)C3(CCCCC3)C2=O)cc(OC)c1OC
Second: Cc1c(S(=O)(=O)/N=C(\NN)Nc2ccc(Cl)cc2)sc2ccc(Cl)cc12
The TGI of the first is higher: > 100 µM for the first, 28.4 µM for the second.

Test system: HCT-15 colon
Test: inhibition of tumour cell growth, NCI panel, 48 h

First: CC(C)/C(Cl)=N\OC(=O)Nc1ccc(F)cc1
Second: Cc1c(S(=O)(=O)/N=C(\NN)Nc2ccc(Cl)cc2)sc2ccc(Cl)cc12
The TGI of the first is 2.7-fold lower: 12.9 µM for the first, 34.4 µM for the second.

With `COc1cc(N2C(=O)C(=O)C3(CCCCC3)C2=O)cc(OC)c1OC` the TGI was > 100 µM.
